Converted amounts (≈) assume the structure as drawn.
Tests used:
Escherichia coli [1] = test: Antibacterial activity against Escherichia coli ATCC25922 assessed as reduction in bacterial growth measured after 18 to 24 hrs by CLSI protocol based method; type: functional; conditions: time 18-24 hrs
Klebsiella pneumoniae [2] = test: Antibacterial activity against Klebsiella pneumoniae ATCC700603 assessed as reduction in bacterial growth measured after 18 to 24 hrs by CLSI protocol based method; type: functional; conditions: time 18-24 hrs
Klebsiella pneumoniae [3] = test: Antibacterial activity against Klebsiella pneumoniae clinical isolate KPN+22-1 assessed as reduction in bacterial growth measured after 18 to 24 hrs by CLSI protocol based method; type: functional; conditions: time 18-24 hrs
Escherichia coli [4] = test: Potency index, ratio of CHIR-090 MIC to test compound MIC for antibacterial activity against Escherichia coli ATCC25922 assessed as reduction in bacterial growth measured after 18 to 24 hrs by CLSI protocol based method; type: functional; conditions: time 18-24 hrs
Pseudomonas aeruginosa [5] = test: Antibacterial activity against Pseudomonas aeruginosa ATCC27853 assessed as reduction in bacterial growth measured after 18 to 24 hrs by CLSI protocol based method; type: functional; conditions: time 18-24 hrs
Pseudomonas aeruginosa [6] = test: Antibacterial activity against Pseudomonas aeruginosa clinical isolate PAE22-1 assessed as reduction in bacterial growth measured after 18 to 24 hrs by CLSI protocol based method; type: functional; conditions: time 18-24 hrs
[7] = Metabolic stability in mouse liver microsomes assessed as intrinsic clearance at 1 uM preincubated for 5 mins followed by NADPH addition and measured after 5 to 60 mins by LC-MS analysis; type: ADME, Microsome; conditions: time 10-65 min
[8] = Metabolic stability in rat liver microsomes assessed as half life at 1 uM preincubated for 5 mins followed by NADPH addition and measured after 5 to 60 mins by LC-MS analysis; type: ADME, Microsome; conditions: time 10-65 min
[9] = Metabolic stability in human liver microsomes assessed as intrinsic clearance at 1 uM preincubated for 5 mins followed by NADPH addition and measured after 5 to 60 mins by LC-MS analysis; type: ADME, Microsome; conditions: time 10-65 min, read-out: CLH
[10] = Metabolic stability in rat liver microsomes assessed as intrinsic clearance at 1 uM preincubated for 5 mins followed by NADPH addition and measured after 5 to 60 mins by LC-MS analysis; type: ADME, Microsome; conditions: time 10-65 min
[11] = Intrinsic clearance in rat; type: ADME; conditions: read-out: CLH
[12] = Metabolic stability in mouse liver microsomes assessed as half life at 1 uM preincubated for 5 mins followed by NADPH addition and measured after 5 to 60 mins by LC-MS analysis; type: ADME, Microsome; conditions: time 10-65 min
[13] = Intrinsic clearance in human; type: ADME; conditions: read-out: CLH
[14] = Intrinsic clearance in mouse; type: ADME, organism-based; conditions: read-out: CLH
[15] = Metabolic stability in human liver microsomes assessed as half life at 1 uM preincubated for 5 mins followed by NADPH addition and measured after 5 to 60 mins by LC-MS analysis; type: ADME, Microsome; conditions: time 10-65 min
[16] = Stability in rat plasma at 1 uM incubated for 6 hrs by LC-MS/MS analysis; type: ADME, cell-free; conditions: read-out: Stability
[17] = AUC (0 to t) in male Sprague-Dawley rat at 10 mg/kg, IG measured upto 24 hrs by LC-MS analysis; type: ADME, organism-based; conditions: in vivo, po
Cytochrome P450 2D6 = Cytochrome P450 2D6 (Homo sapiens, UniProt P10635); test: Inhibition of CYP2D6 in human liver microsomes using quinidine […] preincubated for 5 mins followed by substrate addition ande measured after 120 mins in presence of NADPH by LC-MS/MS analysis; type: ADME, Microsome
Chain of Cytochrome P450 2D6 (P10635 whole entry): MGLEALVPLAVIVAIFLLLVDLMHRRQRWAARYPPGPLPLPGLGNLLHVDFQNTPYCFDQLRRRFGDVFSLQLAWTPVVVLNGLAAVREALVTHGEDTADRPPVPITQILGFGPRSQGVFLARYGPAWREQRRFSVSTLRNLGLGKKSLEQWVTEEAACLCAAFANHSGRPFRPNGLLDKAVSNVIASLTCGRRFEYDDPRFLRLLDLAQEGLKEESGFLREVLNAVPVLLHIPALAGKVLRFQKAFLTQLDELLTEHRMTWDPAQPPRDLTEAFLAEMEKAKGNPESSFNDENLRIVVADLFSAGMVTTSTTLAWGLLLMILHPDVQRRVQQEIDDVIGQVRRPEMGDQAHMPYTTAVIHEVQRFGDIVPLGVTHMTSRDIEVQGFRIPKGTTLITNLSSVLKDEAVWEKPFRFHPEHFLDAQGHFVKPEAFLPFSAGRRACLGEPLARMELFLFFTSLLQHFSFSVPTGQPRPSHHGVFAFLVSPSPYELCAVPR

[18] = Half life in male Sprague-Dawley rat at 10 mg/kg, IG measured upto 24 hrs by LC-MS analysis; type: ADME, organism-based; conditions: in vivo, po
[19] = Stability in mouse plasma at 1 uM incubated for 6 hrs by LC-MS/MS analysis; type: ADME, cell-free; conditions: read-out: Stability
[20] = MRT (0 to t) in male Sprague-Dawley rat at 10 mg/kg, IG measured upto 24 hrs by LC-MS analysis; type: ADME, organism-based; conditions: in vivo, po
[21] = Plasma protein binding in human assessed as drug recovery at 1 uM incubated for 6 hrs by LC-MS/MS analysis; type: ADME, cell-free; conditions: read-out: Drug recovery
Cytochrome P450 3A4 = Cytochrome P450 3A4 (Homo sapiens, UniProt P08684); test: Inhibition of CYP3A4 in human liver microsomes using ketoconazole […] preincubated for 5 mins followed by substrate addition ande measured after 120 mins in presence of NADPH by LC-MS/MS analysis; type: ADME, Microsome
Chain of Cytochrome P450 3A4 (P08684 whole entry): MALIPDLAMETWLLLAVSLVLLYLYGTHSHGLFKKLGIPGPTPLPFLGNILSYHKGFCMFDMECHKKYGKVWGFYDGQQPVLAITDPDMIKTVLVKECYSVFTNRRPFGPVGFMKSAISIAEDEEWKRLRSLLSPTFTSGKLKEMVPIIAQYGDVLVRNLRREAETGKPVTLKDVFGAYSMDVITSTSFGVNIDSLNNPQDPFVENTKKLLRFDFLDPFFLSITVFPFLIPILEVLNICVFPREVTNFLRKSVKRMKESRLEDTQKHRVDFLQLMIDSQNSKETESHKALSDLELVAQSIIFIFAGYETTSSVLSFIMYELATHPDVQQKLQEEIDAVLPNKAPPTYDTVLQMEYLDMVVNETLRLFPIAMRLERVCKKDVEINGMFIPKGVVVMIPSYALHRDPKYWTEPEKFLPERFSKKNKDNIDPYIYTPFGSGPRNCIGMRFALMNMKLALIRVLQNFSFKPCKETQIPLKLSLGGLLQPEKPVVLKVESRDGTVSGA

[22] = Oral bioavailability in male Sprague-Dawley rat at 10 mg/kg, IG measured upto 24 hrs by LC-MS analysis; type: ADME, organism-based; conditions: in vivo
[23] = Solubility of the compound at pH 4.0 by LC-MS/MS analysis; type: physicochemical; conditions: buffer
[24] = Plasma protein binding in rat assessed as unbound fraction at 1 uM incubated for 6 hrs by LC-MS/MS analysis; type: ADME, cell-free
[25] = Plasma protein binding in mouse at 1 uM incubated for 6 hrs by LC-MS/MS analysis; type: ADME, cell-free; conditions: read-out: PPB (converted)
[26] = Plasma protein binding in rat at 1 uM incubated for 6 hrs by LC-MS/MS analysis; type: ADME, cell-free; conditions: read-out: PPB (converted)
[27] = MRT (0 to t) in male Sprague-Dawley rat at 1 mg/kg, iv measured upto 24 hrs by LC-MS analysis; type: ADME, organism-based; conditions: in vivo
[28] = Tmax in male Sprague-Dawley rat at 10 mg/kg, IG measured upto 24 hrs by LC-MS analysis; type: ADME, organism-based; conditions: in vivo, po
[29] = Plasma protein binding in rat assessed as drug recovery at 1 uM incubated for 6 hrs by LC-MS/MS analysis; type: ADME, cell-free; conditions: read-out: Drug recovery
[30] = Half life in male Sprague-Dawley rat at 1 mg/kg, iv measured upto 24 hrs by LC-MS analysis; type: ADME, organism-based; conditions: in vivo
[31] = Plasma protein binding in mouse assessed as drug recovery at 1 uM incubated for 6 hrs by LC-MS/MS analysis; type: ADME, cell-free; conditions: read-out: Drug recovery
Cytochrome P450 2C9 = Cytochrome P450 2C9 (Homo sapiens, UniProt P11712); test: Inhibition of CYP2C9 in human liver microsomes using sulfaphenazolum […] preincubated for 5 mins followed by substrate addition ande measured after 120 mins in presence of NADPH by LC-MS/MS analysis; type: ADME, Microsome
Chain of Cytochrome P450 2C9 (P11712 whole entry): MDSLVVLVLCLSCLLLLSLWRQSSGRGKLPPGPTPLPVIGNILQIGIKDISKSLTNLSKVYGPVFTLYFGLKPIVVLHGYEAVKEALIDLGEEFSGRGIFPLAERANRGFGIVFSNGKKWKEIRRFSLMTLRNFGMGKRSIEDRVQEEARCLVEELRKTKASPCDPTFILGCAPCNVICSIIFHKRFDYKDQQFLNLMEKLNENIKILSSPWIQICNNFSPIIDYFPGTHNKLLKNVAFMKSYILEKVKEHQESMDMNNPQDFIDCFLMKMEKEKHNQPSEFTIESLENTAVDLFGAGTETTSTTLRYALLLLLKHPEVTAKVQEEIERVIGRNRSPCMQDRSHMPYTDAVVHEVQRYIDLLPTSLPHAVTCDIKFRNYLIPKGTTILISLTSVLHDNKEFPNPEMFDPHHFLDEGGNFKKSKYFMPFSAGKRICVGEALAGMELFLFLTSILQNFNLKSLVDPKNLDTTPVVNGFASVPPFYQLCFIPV

[32] = AUC (0 to t) in male Sprague-Dawley rat at 1 mg/kg, iv measured upto 24 hrs by LC-MS analysis; type: ADME, organism-based; conditions: in vivo
Cytochrome P450 2C19 = Cytochrome P450 2C19 (Homo sapiens, UniProt P33261); test: Inhibition of CYP2C19 in human liver microsomes using nootkatone […] preincubated for 5 mins followed by substrate addition ande measured after 120 mins in presence of NADPH by LC-MS/MS analysis; type: ADME, Microsome
Chain of Cytochrome P450 2C19 (P33261 whole entry): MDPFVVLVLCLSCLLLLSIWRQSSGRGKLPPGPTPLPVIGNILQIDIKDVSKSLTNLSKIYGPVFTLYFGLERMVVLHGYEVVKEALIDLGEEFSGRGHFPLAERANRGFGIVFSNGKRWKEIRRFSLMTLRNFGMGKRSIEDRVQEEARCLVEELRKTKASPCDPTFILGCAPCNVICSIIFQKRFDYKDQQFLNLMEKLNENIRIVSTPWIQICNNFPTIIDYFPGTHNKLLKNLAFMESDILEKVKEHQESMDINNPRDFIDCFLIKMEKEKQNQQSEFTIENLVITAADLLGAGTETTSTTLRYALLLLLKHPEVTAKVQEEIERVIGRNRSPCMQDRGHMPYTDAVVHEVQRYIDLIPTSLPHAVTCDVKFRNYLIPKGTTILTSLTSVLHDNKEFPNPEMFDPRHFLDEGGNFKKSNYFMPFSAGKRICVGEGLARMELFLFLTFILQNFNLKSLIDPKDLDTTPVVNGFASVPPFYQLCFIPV

[33] = Volume of distribution at steady state in male Sprague-Dawley rat at 1 mg/kg, iv measured upto 24 hrs by LC-MS analysis; type: ADME, organism-based; conditions: in vivo, read-out: Vdss
[34] = Clearance in male Sprague-Dawley rat at 1 mg/kg, iv measured upto 24 hrs by LC-MS analysis; type: ADME, organism-based; conditions: in vivo
[35] = Solubility of the compound at pH 6.8 by LC-MS/MS analysis; type: physicochemical; conditions: buffer
[36] = Cmax in male Sprague-Dawley rat at 10 mg/kg, IG measured upto 24 hrs by LC-MS analysis; type: ADME, organism-based; conditions: in vivo, po
[37] = Stability in human plasma at 1 uM incubated for 6 hrs by LC-MS/MS analysis; type: ADME, cell-free; conditions: read-out: Stability
[38] = Plasma protein binding in human assessed as unbound fraction at 1 uM incubated for 6 hrs by LC-MS/MS analysis; type: ADME, cell-free
[39] = Plasma protein binding in human at 1 uM incubated for 6 hrs by LC-MS/MS analysis; type: ADME, cell-free; conditions: read-out: PPB
[40] = Plasma protein binding in mouse assessed as unbound fraction at 1 uM incubated for 6 hrs by LC-MS/MS analysis; type: ADME, cell-free
[41] = Solubility of the compound at pH 9.0 by LC-MS/MS analysis; type: physicochemical; conditions: buffer
HepG2 = test: Cytotoxicity against human HepG2 cells assessed as inhibition of cell growth measured after 48 hrs by MTT assay; type: functional, cell-based; conditions: HepG2, 48 h
Cytochrome P450 1A2 = biological target: T1, Cytochrome P450 1A2 (Homo sapiens, UniProt P05177); test: Inhibition of CYP1A2 in human liver microsomes using alpha-naphthoflavone […] preincubated for 5 mins followed by substrate addition ande measured after 120 mins in presence of NADPH by LC-MS/MS analysis; type: ADME, Microsome
T1 sequence (P05177 whole entry): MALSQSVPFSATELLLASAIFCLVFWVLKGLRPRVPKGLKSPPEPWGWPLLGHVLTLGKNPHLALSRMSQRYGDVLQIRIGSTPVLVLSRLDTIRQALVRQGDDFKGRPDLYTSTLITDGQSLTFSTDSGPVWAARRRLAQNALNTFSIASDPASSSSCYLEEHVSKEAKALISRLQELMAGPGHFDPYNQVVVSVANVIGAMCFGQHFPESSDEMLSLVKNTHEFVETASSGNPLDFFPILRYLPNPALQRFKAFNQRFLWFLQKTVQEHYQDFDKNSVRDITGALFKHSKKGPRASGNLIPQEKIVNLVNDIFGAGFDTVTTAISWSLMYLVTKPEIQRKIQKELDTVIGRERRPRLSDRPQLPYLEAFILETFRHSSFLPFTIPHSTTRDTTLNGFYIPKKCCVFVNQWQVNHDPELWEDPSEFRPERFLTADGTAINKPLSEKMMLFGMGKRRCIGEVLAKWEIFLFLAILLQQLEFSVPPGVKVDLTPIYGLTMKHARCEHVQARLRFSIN

[42] = liver microsomes, read-out: CLH

C[C@@H](O)[C@H](NC(=O)c1ccc(C#Cc2ccc(/C=N/N3CCSCC3)cc2)cc1)C(=O)NO
MIC (Escherichia coli [1]): 0.25 µg/mL (≈ 0.536 µM) | MIC (Klebsiella pneumoniae [2]): > 64 µg/mL | MIC (Klebsiella pneumoniae [3]): 1 µg/mL (≈ 2.14 µM) | Ratio (Escherichia coli [4]): 2 | MIC (Pseudomonas aeruginosa [5]): > 64 µg/mL | MIC (Pseudomonas aeruginosa [6]): 8 µg/mL (≈ 17.1 µM)

C[C@@H](O)[C@H](NC(=O)c1ccc(C#Cc2ccc(/C=N/N3CCOCC3)cc2)cc1)C(=O)NO
MIC (Escherichia coli [1]): 0.25 µg/mL (≈ 0.555 µM) | microsomal CLint at 1 µM [7, 42]: 1.79 µL/min/mg | half-life at 1 µM ([8]; liver microsomes): 7.9 h | microsomal CLint at 1 µM [9]: 7.16 µL/min/mg | MIC (Klebsiella pneumoniae [2]): > 64 µg/mL | MIC (Klebsiella pneumoniae [3]): 1 µg/mL (≈ 2.22 µM) | microsomal CLint at 1 µM [10, 42]: 4.53 µL/min/mg | CLint scaled [11]: 8.15 mL/min/kg | half-life at 1 µM ([12]; liver microsomes): 6.1 h | Ratio (Escherichia coli [4]): 2 | CLint scaled [13]: 6.76 mL/min/kg | CLint scaled [14]: 7.04 mL/min/kg | half-life at 1 µM ([15]; liver microsomes): 4.98 h | MIC (Pseudomonas aeruginosa [5]): > 64 µg/mL | MIC (Pseudomonas aeruginosa [6]): 1 µg/mL (≈ 2.22 µM)

C[C@@H](O)[C@H](NC(=O)c1ccc(C#Cc2ccc(/C=N/N3CCCC3)cc2)cc1)C(=O)NO
MIC (Escherichia coli [1]): 0.06 µg/mL (≈ 0.138 µM) | remaining at 6 h, 1 µM [16]: 109% | AUC(0-t) at 24 h [17]: 1050 ng·h/mL | IC50 (Cytochrome P450 2D6): > 30 µM | half-life [18]: 2.5 h | CLH ([7]; microsomes, 1 µM): 17.6 µL/min/mg | t1/2 ([8]; microsomes, 1 µM): 4.14 min | remaining at 6 h, 1 µM [19]: 111% | MRT last at 24 h [20]: 3.41 h | recovery at 6 h, 1 µM [21]: 103% | MIC (Klebsiella pneumoniae [2]): 8 µg/mL (≈ 18.4 µM) | IC50 (Cytochrome P450 3A4): > 30 µM | MIC (Klebsiella pneumoniae [3]): 0.25 µg/mL (≈ 0.575 µM) | bioavailability [22]: 13.3% | CLH ([10]; microsomes, 1 µM): 9.76 µL/min/mg | solubility [23]: 4.8 µM (≈ 2.09 µg/mL) | fraction unbound at 6 h, 1 µM [24]: 0.0016 | fraction unbound at 6 h, 1 µM [25]: 0.002 | CLint scaled [11]: 8.59 mL/min/kg | fraction unbound at 6 h, 1 µM [26]: 0.002 | MRT last at 24 h [27]: 1.31 h | Tmax [28]: 4 h | recovery at 6 h, 1 µM [29]: 102% | half-life [30]: 1.09 h | t1/2 ([12]; microsomes, 1 µM): 3.91 min | recovery at 6 h, 1 µM [31]: 110% | IC50 (Cytochrome P450 2C9): > 30 µM | AUC(0-t) at 24 h [32]: 791 ng·h/mL | IC50 (Cytochrome P450 2C19): > 30 µM | Vd [33]: 1.8 L/kg | clearance [34]: 20.6 mL/min/kg | solubility [35]: 9.41 µM (≈ 4.09 µg/mL) | CLint scaled [13]: 165 mL/min/kg | CLint scaled [14]: 33.8 mL/min/kg | Cmax [36]: 218 ng/mL | t1/2 ([15]; microsomes, 1 µM): 5.62 h | MIC (Pseudomonas aeruginosa [5]): > 64 µg/mL | remaining at 6 h, 1 µM [37]: 113% | fraction unbound at 6 h, 1 µM [38]: 0.0013 | fraction unbound at 6 h, 1 µM [39]: 0.001 | fraction unbound at 6 h, 1 µM [40]: 0.00232 | MIC (Pseudomonas aeruginosa [6]): 2 µg/mL (≈ 4.6 µM) | solubility [41]: 101 µM (≈ 43.9 µg/mL) | IC50 (HepG2): > 30 µM | IC50 (Cytochrome P450 1A2): > 30 µM
